PMC3906526 (Archives of Pharmacal Research, 2013)
pIC50: −log10 of the molar value.

Molecular target: c-Kit (Homo sapiens, UniProt P10721)
Assay: AlphaBead
Assay type: biochemical

c-Kit, sequence (P10721 544-976): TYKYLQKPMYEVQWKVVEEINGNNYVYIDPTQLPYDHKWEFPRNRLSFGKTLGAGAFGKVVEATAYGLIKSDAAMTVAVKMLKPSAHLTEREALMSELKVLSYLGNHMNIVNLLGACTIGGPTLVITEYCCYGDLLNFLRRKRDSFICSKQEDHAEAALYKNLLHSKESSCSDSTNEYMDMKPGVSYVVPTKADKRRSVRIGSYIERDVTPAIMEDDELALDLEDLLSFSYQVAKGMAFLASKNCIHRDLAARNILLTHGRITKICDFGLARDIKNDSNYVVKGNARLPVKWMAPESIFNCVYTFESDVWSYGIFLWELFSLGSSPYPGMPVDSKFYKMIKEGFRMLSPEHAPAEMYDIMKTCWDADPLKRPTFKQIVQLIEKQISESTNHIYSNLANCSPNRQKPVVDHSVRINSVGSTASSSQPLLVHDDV

| pIC50 | SMILES |
| --- | --- |
| 4.88 | COc1ccc(-c2cc(=O)c3c(O)cc(O)cc3o2)cc1 [Y1, acacetin] |
| 5.33 | O=c1cc(-c2ccc(O)cc2)oc2cc(O)cc(O)c12 [Y3, apigenin] |

| SMILES | pIC50 |
| --- | --- |
| O=c1cc(-c2ccc(O)c(O)c2)oc2cc(O)cc(O)c12 [Y4, luteolin] | 6.00 |
